According to patent publication US20250241879A1, “CAPSAICIN SEQUENTIAL DOSING METHOD FOR TREATMENT OF KNEE JOINT PAIN” (priority 2018, published 2025):

Experiments:
[1] = test system: human patients with chronic knee osteoarthritis; assay: Treatment-emergent adverse events, SAEs and laboratory abnormalities after single intra-articular injection (Example 2); format: in vivo; conditions: for All TEAEs, (%) / Arthralgia TEAE, (%) / Hepatic enzyme increased TEAE, (%) / Influenza TEAE, (%) / Joint effusion TEAE, (%) / Nasopharyngitis TEAE, (%) / Upper respiratory tract infection TEAE, (%): through 24 weeks
Description: Human patients experiencing osteoarthritic knee joint pain received either placebo, a 0.5 mg intra-articular injection of capsaicin into the osteoarthritic knee joint, or a 1.0 mg intra-articular injection of capsaicin into the osteoarthritic knee joint. […]
(§1) Human patients aged 45-80 years with chronic knee osteoarthritis, stable moderate to severe pain, and intolerability to analgesics were randomized to receive a single intra-articular injection of placebo into the osteoarthritic knee, a single intra-articular injection of a 0.5 mg dose of capsaicin into the osteoarthritic knee, or a single intra-articular injection of a 1.0 mg dose of capsaicin into the osteoarthritic knee.
(§2) Safety assessments included treatment-emergent adverse events (TEAEs), serious AEs (SAEs), laboratory abnormalities, and procedural pain ratings (none, mild, moderate, moderately severe, severe). The procedure pain ratings characterize the extent of transient burning sensation experienced by patients due to administration of capsaicin.

[2] = test system: human patients with chronic knee osteoarthritis; assay: Procedural pain ratings (none, mild, moderate, moderately severe, severe) after intra-articular injection (Example 2); format: in vivo; conditions: 2 hours after injection of capsaicin (or placebo); all groups
Text: as §2

[3] = test system: osteoarthritic knee joint pain; assay: Patient Global Impression of Change (PGIC), index knee (Example 2); format: in vivo, human; conditions: for PGIC: proportion of patients reporting significant improvement in the index knee: week 4, placebo 44%
Description: as §1
(§3) Patients completed Patient Global Impression of Change (PGIC; change vs baseline in index knee on 7-point scale: 1=very much improved; 7=very much worse, with scores of 1 or 2 indicating significant improvement) and Patient-specific Functional Scale (PSFS; rate≤3 important activities difficult to perform due to index knee pain on 0-10 scale: 0=able to perform; 10=unable to perform) at scheduled visits. Odds ratios for PGIC scores were calculated with chi-square tests. Changes in Western Ontario and McMaster Universities Osteoarthritis Index (WOMAC) B stiffness subscale and WOMAC C function subscale through week 24 were also assessed. PSFS, WOMAC B, and WOMAC C scores were evaluated using a mixed model for repeated measures. Statistical tests were 2-sided (alpha, P=0.10).

[4] = test system: osteoarthritic knee joint pain; assay: Patient-specific Functional Scale (PSFS) (Example 2); format: in vivo, human
Description: as §1, §3

[5] = test system: osteoarthritic knee joint pain; assay: WOMAC B stiffness subscale (Example 2); format: in vivo, human; conditions: 1.0 mg dose; through week 16; P=0.007
Description: as §1, §3

[6] = test system: osteoarthritic knee joint pain; assay: WOMAC C function subscale (Example 2); format: in vivo, human; conditions: 1.0 mg dose; through week 16; P=0.02
Description: as §1, §3

[7] = test system: human patients with bilateral knee osteoarthritis; assay: Procedure pain (NPRS) due to intraarticular trans-capsaicin, Breg pad vs ice pack cooling (Example 7); format: in vivo; conditions: Breg Knee WrapOn Polar Pad cooling compared to ice-pack cooling (Example 7)
Description: Human patients experiencing osteoarthritic knee joint pain were subjected to two different protocols for intraarticular administration of trans-capsaicin. Temporary pain expected due to administration of capsaicin was analyzed, along with the intraarticular temperature of the knee joint and the temperature of the patient's skin in the area to be cooled.
(§4) One of the protocols utilized a Breg Knee WrapOn Polar Pad (as illustrated in FIG. 1) that utilizes circulating ice-water to achieve cooling, where the pad is placed on skin surrounding the knee in order to cool the knee joint. The other protocol utilized ice-pack cooling, in which the patient's knee was wrapped with a stockinette and then the ice pack was positioned on top of the stockinette so that the ice pack is positioned over the patient's patella to thereby cool the knee joint. The ice pack was a LEADSTAR pain relief reusable cold therapy ice pack (size=6 inches). A temperature probe was placed into the intraarticular space of the patient's knee joint to measure intraarticular temperature of the knee joint. A temperature probe was also placed on the skin in the area to be cooled in order to measure skin temperature in the area to be cooled.
Five human patients suffering from moderate to severe painful bilateral knee osteoarthritis were recruited for this study evaluating the impact that cooling protocol has on the magnitude of temporary pain experienced by the patient due to administration of capsaicin. […] Patients that participated in the study passed the following screening criteria and meet the patient inclusion and exclusion criteria are set forth below. As part of patient screening, patients received an intradermal injection of 100 μL (100 μg) capsaicin into the non-dominant volar forearm. To be eligible to enter the study, patients were able to tolerate the capsaicin injection. Screening patients rated the pain from capsaicin injection at 5, 10, 20, and 30 minutes after injection using a 0-10 Numerical Pain Rating Scale, where “0” equals no pain and “10” equals worst possible pain.
as §4, with “ice pack (having a surface for application to the patient, wherein said surface has a diameter of approximately six inches) is positioned” for “ice pack is positioned”, “knee joint. A temperature” for “knee joint. The ice pack was a LEADSTAR pain relief reusable cold therapy ice pack (size=6 inches). A temperature”, “knee joint. At the discretion of the physician performing the procedure, in order to reduce discomfort for the patient, the protocol authorized the physician to instill a volume of 1-2 cc of 2% w/w lidocaine (without epinephrine) into the skin and subcutaneous tissue of the knee at the site of intra-articular probe insertion. A temperature” for “knee joint. A temperature”
One the first day of the study, patients were randomized so that (i) three patients receiving cooling of the knee joint using the Breg Knee WrapOn Polar Pad and (ii) two patients will receive ice-pack cooling over the patella as set forth above. Patients were subjected to the following procedure: • Placement of intraarticular temperature probe and skin temperature probe. […]

[8] = Capsaicin 1.0 mg Dose (n = 71), listed as capsaicin
[9] = Capsaicin at Either 0.5 mg or 1.0 Dose (n = 105)
[10] = Capsaicin at Either 0.5 mg or 1.0 Dose (n = 105), listed as capsaicin
[11] = Capsaicin at 0.5 mg Dose, Week 4
[12] = Capsaicin at 0.5 mg Dose, Week 8
[13] = Capsaicin at 0.5 mg Dose, Week 12
[14] = Capsaicin at 0.5 mg Dose, Week 16
[15] = Capsaicin at 0.5 mg Dose, Week 24
[16] = Capsaicin at 1.0 mg Dose, Week 4
[17] = Capsaicin at 1.0 mg Dose, Week 8
[18] = Capsaicin at 1.0 mg Dose, Week 12
[19] = Capsaicin at 1.0 mg Dose, Week 16
[20] = Capsaicin at 1.0 mg Dose, Week 24

COc1cc(CNC(=O)CCCCC=CC(C)C)ccc1O [Capsaicin, N-[(4-hydroxy-3-methoxyphenyl)methyl]-8-methylnon-6-enamide]
All TEAEs, (%) ([1]; Capsaicin 0.5 mg Dose (n = 34)): (47) % | Arthralgia TEAE, (%) ([1]; Capsaicin 0.5 mg Dose (n = 34)): (8.8) % | Hepatic enzyme increased TEAE, (%) ([1]; Capsaicin 0.5 mg Dose (n = 34)): (5.9) % | Influenza TEAE, (%) ([1]; Capsaicin 0.5 mg Dose (n = 34)): (2.9) % | Joint effusion TEAE, (%) ([1]; Capsaicin 0.5 mg Dose (n = 34)): (8.8) % | Nasopharyngitis TEAE, (%) ([1]; Capsaicin 0.5 mg Dose (n = 34)): (2.9) % | Upper respiratory tract infection TEAE, (%) ([1]; Capsaicin 0.5 mg Dose (n = 34)): (5.9) % | All TEAEs, (%) ([1]; Capsaicin 0.5 mg Dose (n = 34), listed as capsaicin): 47% | All TEAEs, (%) ([1]; Capsaicin 1.0 mg Dose (n = 71)): (30) % | Arthralgia TEAE, (%) ([1]; Capsaicin 1.0 mg Dose (n = 71)): (7.0) % | Hepatic enzyme increased TEAE, (%) ([1]; Capsaicin 1.0 mg Dose (n = 71)): (1.4) % | Influenza TEAE, (%) ([1]; Capsaicin 1.0 mg Dose (n = 71)): (2.8) % | Nasopharyngitis TEAE, (%) ([1]; Capsaicin 1.0 mg Dose (n = 71)): (2.8) % | Upper respiratory tract infection TEAE, (%) ([1]; Capsaicin 1.0 mg Dose (n = 71)): (4.2) % | All TEAEs, (%) [1, 8]: 30% | Arthralgia TEAE, (%) [1, 8]: 7.0% | All TEAEs, (%) [1, 9]: (35) % | Arthralgia TEAE, (%) [1, 9]: (7.6) % | Hepatic enzyme increased TEAE, (%) [1, 9]: (2.9) % | Influenza TEAE, (%) [1, 9]: (2.9) % | Joint effusion TEAE, (%) [1, 9]: (2.9) % | Nasopharyngitis TEAE, (%) [1, 9]: (2.9) % | Upper respiratory tract infection TEAE, (%) [1, 9]: (4.8) % | Arthralgia TEAE, (%) [1, 10]: 7.6% | Upper respiratory tract infection TEAE, (%) [1, 10]: 4.8% | Laboratory abnormalities ([1]; all groups, most mild and associated with comorbidities): Few laboratory abnormalities were observed | TEAEs mild in severity, patients ([1]; capsaicin 0.5 mg dose group): 29% | TEAEs moderate in severity, patients ([1]; capsaicin 0.5 mg dose group): 18% | Serious AEs (SAEs) ([1]; capsaicin 0.5 mg dose group, not considered treatment related): One SAE (shoulder pain from osteoarthritis) | TEAEs mild in severity, patients ([1]; capsaicin 1.0 mg dose group): 20% | TEAEs moderate in severity, patients ([1]; capsaicin 1.0 mg dose group): 9.9% | Tolerability / safety profile ([1]; single injection 1.0 mg dose, up to 24 weeks): well tolerated with a safety profile generally comparable to placebo | Patients reporting mild procedural pain [2]: 39% | Patients reporting no procedural pain [2]: 50% | PGIC: proportion of patients reporting significant improvement in the index knee ([3]; 0.5 mg dose, P=0.18): 58% | PGIC: proportion of patients reporting significant improvement in the index knee ([3]; 1.0 mg dose, P=0.01): 64% | PGIC: likelihood of significant improvement compared with placebo ([3]; 1.0 mg dose, weeks 4, 8 and 12): greater than two-fold likelihood | PGIC: Odds Ratio vs Placebo [3, 11]: 1.76 (P = 0.18) | PGIC: Odds Ratio vs Placebo [3, 12]: 1.89 (P = 0.14) | PGIC: Odds Ratio vs Placebo [3, 13]: 2.75 (P = 0.03) | PGIC: Odds Ratio vs Placebo [3, 14]: 2.37 (P = 0.05) | PGIC: Odds Ratio vs Placebo [3, 15]: 1.68 (P = 0.23) | PGIC: Odds Ratio vs Placebo [3, 16]: 2.34 (P = 0.01) | PGIC: Odds Ratio vs Placebo [3, 17]: 2.50 (P = 0.008) | PGIC: Odds Ratio vs Placebo [3, 18]: 2.40 (P = 0.01) | PGIC: Odds Ratio vs Placebo [3, 19]: 1.85 (P = 0.07) | PGIC: Odds Ratio vs Placebo [3, 20]: 1.64 (P = 0.15) | PSFS: ability to perform activities versus placebo ([4]; 1.0 mg dose, weeks 4-16): significantly improved patients' ability to perform activities versus placebo | PSFS: LSMD versus Placebo [4, 11]: 0.01 (P = 0.98) | PSFS: LSMD versus Placebo [4, 12]: −0.03 (P = 0.96) | PSFS: LSMD versus Placebo [4, 13]: −0.4 (P = 0.40) | PSFS: LSMD versus Placebo [4, 14]: −0.5 (P = 0.35) | PSFS: LSMD versus Placebo [4, 15]: −0.05 (P = 0.93) | PSFS: LSMD versus Placebo [4, 16]: −1.4 (P = 0.0006) | PSFS: LSMD versus Placebo [4, 17]: −0.9 (P = 0.03) | PSFS: LSMD versus Placebo [4, 18]: −1.1 (P = 0.007) | PSFS: LSMD versus Placebo [4, 19]: −0.9 (P = 0.04) | PSFS: LSMD versus Placebo [4, 20]: −0.5 (P = 0.27) | Improvement in physical function versus placebo ([4]; single injection 1.0 mg dose, moderate to severe osteoarthritis knee pain): statistically significant improvements in physical function for 12-16 weeks | WOMAC B score, least squares mean difference versus placebo [5]: −2.1 | WOMAC C score, least squares mean difference versus placebo [6]: −14.8 | Pain due to capsaicin injection, comparison of cooling methods [7]: less when Breg Knee WrapOn Polar Pad cooling was used
